Laboratory results reported in PubChem BioAssay AID1918930 (Molecular Pharmacology Branch, DTP, NCI, 2023).

Tested on: 233499-124-R-J3-PDC complex spheroid viability, % test/control
Assay: Anticancer human tumor 233499-124-R-J3-PDC patient-derived colon adenocarcinoma cell line growth inhibition
Conditions: for IC50: curve of first compound; for viability, T/C: stronger effect = lower value
Description: Multicellular complex tumor spheroid response to LSD1 Inhibitor Iadademstat in combination with a variety of drugs and investigational agents in selected tumor cell lines
The current study was undertaken to assess response to LSD1 inhibitors in combination with standard-of-care drugs and investigational agents in solid tumor complex spheroid models as well as in the K-562 leukemia. Complex spheroids include a stromal component modeled by human endothelial cells (HUVEC) and fibroblasts modeled by human mesenchymal stem cells (MSCs). The concentration ranges selected for each drug and investigational agent were based upon clinically achievable concentrations if the clinical Cmax of the agent was known.
Compounds. The drugs and investigational agents used in this study are listed on Table 1. All of the agents used, including staurosporine (NSC755774) and gemcitabine (NSC613327), were obtained from the Developmental Therapeutics Program, NCI. FDA-approved anticancer drugs are available from the NCI at http://dtp.nci.nih.gov/branches/dscb/oncology_drugset_explanation.html. Drugs and investigational agents were >95% pure by proton nuclear magnetic resonance (NMR) and liquid chromatography/mass spectrometry (LC/MS). Stock solutions were prepared at 400x in DMSO, stored at -70 degrees C, and diluted in fresh medium prior to their use. The final concentration of DMSO in cell culture wells never exceeded 0.25% (v/v). The FDA-approved anticancer drug set is available from the Developmental Therapeutics Program at https://dtp.cancer.gov/organization/dscb/obtaining/available_plates.htm. All drugs and investigational agents were tested over a range starting from a high concentration at or near the clinical Cmax and decreasing in half-log increments. If the clinical Cmax for an agent had not been determined, the highest concentration tested was 10 microM.
Cell Lines. The patient-derived cancer cell (PDC) lines: 292921-168-R-J2-PDC, K24384-001-R-PDC, and 521955-158-R2-J5-PDC pancreatic carcinomas, 556581-035-R-J1 ovarian carcinoma, 324938-238-R-J1-PDC, 855422-203-R-J1-PDC and 883617-216-R-J1-PDC urothelial bladder carcinomas, 743489-274-T-PDC renal cell carcinoma, 138582-R-J1 Merkel cell tumor, K60290-347-R-J1 and K57222-313-R-J1-PDC glioblastomas, 653999-131-R-J2-PDC, LG0703-F948-PDC, and 349418-098-R-PDC non-small cell lung carcinomas, 885512-296-R-J2-PDC, 171881-019-R-J1-PDC breast carcinomas and 186277-243-T-J2-PDC and 233499-124-R-J2-PDC colon carcinomas were obtained from the NCI Patient-Derived Models Repository (PDMR, https://pdmr.cancer.gov). The established cell lines NCI/ADR-RES (RRID:CVCL_14520 and OVCAR-5 (RRID:CVCL_1628) ovarian carcinomas, 786-O (RRID:CVCL_1051) and A498 (RRID:CVCL_A498) renal cell carcinoma, NCI-H211 (ATCC, cat. CRL-5824; RRID:CVCL_1529), NCI-H196 (ATCC, cat. CRL-5823, RRID:CVCL_1509), SW 1271 (ATCC, cat. CRL-2177, RRID:CVCL_1716) and NCI-H1876 (ATCC, cat. CRL-5902, RRID:CVCL_1503) small cell lung carcinomas, MDA-MB-231 (RRID:CVCL_0062) and MDA-MB-468 (RRID:CVCL_0419)breast carcinomas (10-12). Pooled donor human umbilical vein endothelial cells (HUVEC, Lonza, cat. CC-2519) and human mesenchymal stem cells (hMSC, Lonza, cat. PT-2501) were purchased from Lonza (Walkersville, MD).
Cell Culture. All cells were maintained in an incubator at 37 degrees C and 5% CO2 with 95% humidity. The PDC lines were cultured according to standard operating procedures established by the NCI PDMR (https://pdmr.cancer.gov). Briefly all PDCs were thawed and cultured in Matrigel-coated flasks prepared with a working solution of 1X Ham's F-12 nutrient mix, without supplementation (Invitrogen, Waltham, MA, cat. 11765054), 100 U/mL penicillin-streptomycin (Invitrogen, cat. 15140122), and 2.5% Matrigel (Corning Inc., Corning, NY, cat. 354248) for the first three passages. […]

[1] = second compound 0.1 µM, first compound 0.00949 µM
[2] = second compound 0.1 µM, first compound 0.03 µM
[3] = second compound 0.1 µM, first compound 0.0949 µM
[4] = second compound 0.1 µM, first compound 0.3 µM
[5] = second compound 0.1 µM, first compound 0.949 µM
[6] = second compound 0.1 µM, first compound 3 µM
[7] = second compound 0.316 µM, first compound 0.00949 µM
[8] = second compound 0.316 µM, first compound 0.03 µM
[9] = second compound 0.316 µM, first compound 0.0949 µM
[10] = second compound 0.316 µM, first compound 0.3 µM
[11] = second compound 0.316 µM, first compound 0.949 µM
[12] = second compound 0.316 µM, first compound 3 µM
[13] = second compound 1 µM, first compound 0.00949 µM
[14] = second compound 1 µM, first compound 0.03 µM
[15] = second compound 1 µM, first compound 0.0949 µM
[16] = second compound 1 µM, first compound 0.3 µM
[17] = second compound 1 µM, first compound 0.949 µM
[18] = second compound 1 µM, first compound 3 µM
[19] = second compound 3.16 µM, first compound 0.00949 µM
[20] = second compound 3.16 µM, first compound 0.03 µM
[21] = second compound 3.16 µM, first compound 0.0949 µM
[22] = second compound 3.16 µM, first compound 0.3 µM
[23] = second compound 3.16 µM, first compound 0.949 µM
[24] = second compound 3.16 µM, first compound 3 µM
[25] = second compound 10 µM, first compound 0.00949 µM
[26] = second compound 10 µM, first compound 0.03 µM
[27] = second compound 10 µM, first compound 0.0949 µM
[28] = second compound 10 µM, first compound 0.3 µM
[29] = second compound 10 µM, first compound 0.949 µM
[30] = second compound 10 µM, first compound 3 µM
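Note: spheroids exposed to agents for one week before readout.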

Molecule `CC(C)CC(NC(=O)C(Cc1ccccc1)NC(=O)c1cnccn1)B(O)O` (stereo not given) + NC1CC1c1ccc(-c2cccc(O)c2)cc1 has an IC50 (second compound 0.1 µM) of 0.491 nM, an IC50 (second compound 0.316 µM) of 0.445 nM and an IC50 (second compound 1 µM) of 0.493 nM. The IC50 (second compound 3.16 µM) was 0.528 nM, the IC50 (second compound 10 µM) was 0.389 nM and the viability, T/C (second compound 0.1 µM, first compound 0.000316 µM) was 80.7%. The viability, T/C (second compound 0.1 µM, first compound 0.001 µM) was 0.42%, the viability, T/C (second compound 0.1 µM, first compound 0.00316 µM) was 0.06% and the viability, T/C (second compound 0.1 µM, first compound 0.01 µM) was 0.06%. It also gave a viability, T/C (second compound 0.1 µM, first compound 0.0316 µM) of 0.07%, a viability, T/C (second compound 0.1 µM, first compound 0.1 µM) of 0.23% and a viability, T/C (second compound 0.316 µM, first compound 0.000316 µM) of 71%. It also gave a viability, T/C (second compound 0.316 µM, first compound 0.001 µM) of 0.32%, a viability, T/C (second compound 0.316 µM, first compound 0.00316 µM) of 0.06% and a viability, T/C (second compound 0.316 µM, first compound 0.01 µM) of 0.23%. The viability, T/C (second compound 0.316 µM, first compound 0.0316 µM) was 0.05%, the viability, T/C (second compound 0.316 µM, first compound 0.1 µM) was 0.21% and the viability, T/C (second compound 1 µM, first compound 0.000316 µM) was 80.7%. The viability, T/C (second compound 1 µM, first compound 0.001 µM) was 0.91%, the viability, T/C (second compound 1 µM, first compound 0.00316 µM) was 0.05% and the viability, T/C (second compound 1 µM, first compound 0.01 µM) was 0.04%. The viability, T/C (second compound 1 µM, first compound 0.0316 µM) was 0.06%, the viability, T/C (second compound 1 µM, first compound 0.1 µM) was 0.2% and the viability, T/C (second compound 3.16 µM, first compound 0.000316 µM) was 89.8%. For the same molecule, the viability, T/C (second compound 3.16 µM, first compound 0.001 µM) was 0.32%, the viability, T/C (second compound 3.16 µM, first compound 0.00316 µM) was 0.08% and the viability, T/C (second compound 3.16 µM, first compound 0.01 µM) was 0.06%. It also gave a viability, T/C (second compound 3.16 µM, first compound 0.0316 µM) of 0.07%, a viability, T/C (second compound 3.16 µM, first compound 0.1 µM) of 0.23% and a viability, T/C (second compound 10 µM, first compound 0.000316 µM) of 60.1%. The viability, T/C (second compound 10 µM, first compound 0.001 µM) was 3.72%, the viability, T/C (second compound 10 µM, first compound 0.00316 µM) was 0.8% and the viability, T/C (second compound 10 µM, first compound 0.01 µM) was 0.22%. The viability, T/C (second compound 10 µM, first compound 0.0316 µM) was 0.42% and the viability, T/C (second compound 10 µM, first compound 0.1 µM) was 0.34%.

Molecule `Nc1ccccc1NC(=O)c1ccc(CNC(=O)OCc2cccnc2)cc1` + NC1CCC(NC2CC2c2ccccc2)CC1 has an IC50 (second compound 0.1 µM) of 476 nM, an IC50 (second compound 0.316 µM) of 579 nM and an IC50 (second compound 1 µM) of 523 nM. For the same molecule, the IC50 (second compound 3.16 µM) was 525 nM, the IC50 (second compound 10 µM) was 463 nM and the viability, T/C [1] was 112%. It also gave a viability, T/C [2] of 93.4%, a viability, T/C [3] of 106% and a viability, T/C [4] of 65.8%. It also gave a viability, T/C [5] of 24%, a viability, T/C [6] of 2.31% and a viability, T/C [7] of 92.2%. For the same molecule, the viability, T/C [8] was 91.8%, the viability, T/C [9] was 101% and the viability, T/C [10] was 91.2%. It also gave a viability, T/C [11] of 19.1%, a viability, T/C [12] of 5.83% and a viability, T/C [13] of 81.9%. For the same molecule, the viability, T/C [14] was 99.9%, the viability, T/C [15] was 92% and the viability, T/C [16] was 88.4%. The viability, T/C [17] was 8.94%, the viability, T/C [18] was 4.76% and the viability, T/C [19] was 78.8%. The viability, T/C [20] was 89.5%, the viability, T/C [21] was 76.7% and the viability, T/C [22] was 82.1%. It also gave a viability, T/C [23] of 16.5%, a viability, T/C [24] of 4.56% and a viability, T/C [25] of 74.8%. For the same molecule, the viability, T/C [26] was 92.3%, the viability, T/C [27] was 75.2% and the viability, T/C [28] was 73.4%. It also gave a viability, T/C [29] of 11.5% and a viability, T/C [30] of 3.56%.

Work on `NS(=O)(=O)OCC1CC(n2ccc3c(NC4CCc5ccccc54)ncnc32)CC1O` (stereo not given) + NC1CCC(NC2CC2c2ccccc2)CC1 yielded an IC50 (second compound 0.1 µM) of 108 nM, an IC50 (second compound 0.316 µM) of 88.8 nM and an IC50 (second compound 1 µM) of 47.5 nM. It also gave an IC50 (second compound 3.16 µM) of 49.6 nM, an IC50 (second compound 10 µM) of 54.1 nM and a viability, T/C [1] of 106%. For the same molecule, the viability, T/C [2] was 95.7%, the viability, T/C [3] was 55.9% and the viability, T/C [4] was 9.71%. It also gave a viability, T/C [5] of 11.5%, a viability, T/C [6] of 9.68% and a viability, T/C [7] of 90.8%. It also gave a viability, T/C [8] of 70%, a viability, T/C [9] of 53.4% and a viability, T/C [10] of 9.15%. The viability, T/C [11] was 6.44%, the viability, T/C [12] was 7.69% and the viability, T/C [13] was 90.7%. For the same molecule, the viability, T/C [14] was 55.9%, the viability, T/C [15] was 43.2% and the viability, T/C [16] was 12%. The viability, T/C [17] was 11.3%, the viability, T/C [18] was 6.96% and the viability, T/C [19] was 102%. For the same molecule, the viability, T/C [20] was 62.9%, the viability, T/C [21] was 34.5% and the viability, T/C [22] was 10.7%. It also gave a viability, T/C [23] of 7.04%, a viability, T/C [24] of 1.91% and a viability, T/C [25] of 89.9%. It also gave a viability, T/C [26] of 66.2%, a viability, T/C [27] of 33.4% and a viability, T/C [28] of 19%. It also gave a viability, T/C [29] of 5.43% and a viability, T/C [30] of 3.7%.
